The source of these data is patent US9133262B2, “Somatostatin antagonists” (Ipsen Pharma S.A.S., priority 1996, dated 2015).

pIC50: −log10 of the molar value. Positions of bridges follow the written chain, without caps; N, C: chain ends. Non-standard residues stand in square brackets, D forms with d. Residues, ends and D or L forms follow the SMILES beside them. Phe(4-NO2) = N[C@@H](Cc1ccc([N+](=O)[O-])cc1)C(=O)O; dDip = N[C@@H](C(=O)O)C(c1ccccc1)c1ccccc1; Phe(4-CN) = N#Cc1ccc(C[C@H](N)C(=O)O)cc1; Phe(4-Cl) = N[C@@H](Cc1ccc(Cl)cc1)C(=O)O; dPhe(4-Cl) = N[C@H](Cc1ccc(Cl)cc1)C(=O)O; Phe(3-F) = N[C@@H](Cc1cccc(F)c1)C(=O)O; Phe(4-F) = N[C@@H](Cc1ccc(F)cc1)C(=O)O; Phe(4-I) = N[C@@H](Cc1ccc(I)cc1)C(=O)O; 2Nal = N[C@@H](Cc1ccc2ccccc2c1)C(=O)O; d2Nal = N[C@H](Cc1ccc2ccccc2c1)C(=O)O; Phe(2-F) = N[C@@H](Cc1ccccc1F)C(=O)O; 3Pal = N[C@@H](Cc1cccnc1)C(=O)O; Tle = CC(C)(C)[C@H](N)C(=O)O

One may read the pIC50 as −log10 of the IC50, conventionally taken in molar units.

One experiment has as its system rat pituitary cells. It counts as cell-based. Conditions: 3 h. The source says:
Bioassay on the In Vitro Release of Growth Hormone
(a) Rat Pituitary Cell Dispersion
Pituitaries from adult Charles River CD male rats (Wilmington, Mass.) housed under controlled conditions were dispersed and cultured using aseptic technique by modification of previously described methods (Hoefer, M. T., et al., Mol. Cell. Endocrinol. 35:229 (1984); Ben-Jonathan, N., et al., Methods Enzymol. 103:249 (1983); and Heiman, M. L., et al., Endocrinology 116:410 (1985)). Pituitaries were removed from sacrificed rats, sectioned, and then placed into a siliconized, liquid scintillation vial containing 2 ml 0.2% trypsin (Worthington Biochemicals, Freehold, N.J.) in sterile-filtered Krebs-Ringer bicarbonate buffer supplemented with 1% bovine serum albumin, 14 mM glucose, modified Eagle medium (MEM) vitamin solution, and MEM amino acids (Gibco Laboratories, Grand Island, N.Y.) (KRBGA). All glassware was siliconized as described by Sayers, et al., Endocrinology 88:1063 (1971). The fragments were incubated in a water bath for 35 min at 37° C. with agitation. The vial contents then were poured into a scintillation vial containing 2 ml 0.1% DNase (Sigma Chemical Co., St. Louis, Mo.) in KRBGA and incubated for 2 min at 37° C. with agitation. After incubation, the tissue was decanted into a 15 ml centrifuge tube and allowed to settle. Medium was discarded, and pituitary sections were washed 3 times with 1 ml fresh-KRBGA. The cells were then dispersed in 2 ml 0.05% LBI (lima bean trypsin inhibitor, Worthington Biochemicals) by gently drawing the fragments into and expelling them out of a siliconized, fire polished Pasteur pipette. Dispersed cells were then filtered through a 630 μm diameter Nylon mesh (Tetko, Elmsford, N.Y.) into a fresh 15 ml centrifuge tube. An additional 2 ml of 0.05% LBI solution was used to rinse the first tube and was transferred to the second tube with filtering.
The dispersed cells were then further diluted with approximately 15 ml sterile-filtered Dulbecco's modified Eagle medium (GIBCO), which was supplemented with 2.5% fetal calf serum (GIBCO), 3% horse serum (GIBCO), 10% fresh rat serum (stored on ice for no longer than 1 hr) from the pituitary donors, 1% MEM non-essential amino acids (GIBCO), and gentamycin (10 ng/ml; Sigma) and nystatin (10,000 U/ml; GIBCO). The cells were poured into a 50 ml round-bottomed glass extraction flask with a large diameter opening and then randomly plated at a density of approximately 200,000 cells per well (Co-star cluster 24; Rochester Scientific Co., Rochester, N.Y.). The plated cells were maintained in the above Dulbecco's medium in a humidified atmosphere of 95% air and 5% CO2 at 37° C. for 4-5 days.
(c) Experimental Incubation and IC50 Determination
In preparation for a hormone challenge, the cells were washed 3 times with medium 199 (GIBCO) to remove old medium and floating cells. Each treatment well contained a total volume of 1 ml medium 199 containing 1% BSA (fraction V; Sigma) with treatments as described below. Each antagonist candidate was tested using a single 24-well cell culture plate. Each treatment was performed in triplicate. Each plate contained 8 treatment groups: one 1 nM growth hormone releasing factor (GRF) (1-29)NH2-stimulated control group; one 1 nM somatostatin-inhibited control group in the presence of 1 nM GRF(1-29)NH2; and 6 doses of a given antagonist in the presence of both 1 nM SRIF and 1 nM GRF per plate. After 3 hrs at 37° C. in a air/carbon dioxide atmosphere (95/5%), the medium was removed and stored at −20° C. until radioimmunoassayed for growth hormone content. IC50's of each antagonist versus 1 nM SRIF were calculated using a computer program (SigmaPlot, Jandel Scientific, San Rafael, Calif.) with the maximum response constrained to the value of the 1 nM GRF(1-29)NH2-stimulated control.
As to `CC(C)C[C@@H]1NC(=O)[C@H](CCCCN)NC(=O)[C@@H](Cc2c[nH]c3ccccc23)NC(=O)[C@H](Cc2cccnc2)NC(=O)[C@H](NC(=O)[C@@H](N)Cc2ccc3ccccc3c2)CSSC[C@@H](C(=O)N[C@@H](Cc2ccc3ccccc3c2)C(N)=O)NC1=O` [Analog No. 35, H2-β-Nal-D-Cys-Pal-D-Trp-Lys-Leu-Cys-β-Nal-NH2] (H-[2Nal][dC][3Pal][dW]KLC[2Nal]-NH2; disulfide 2-7), the negative-log IC50 (pIC50) is 7.28. The compound `CC(C)[C@@H]1NC(=O)[C@H](CCCCN)NC(=O)[C@@H](Cc2c[nH]c3ccccc23)NC(=O)[C@H](Cc2cccnc2)NC(=O)[C@H](NC(=O)[C@@H](N)Cc2cccc(F)c2)CSSC[C@@H](C(=O)N[C@@H](Cc2cccc(F)c2)C(N)=O)NC1=O` [Analog No. 14, H2-m-F-Phe-D-Cys-Pal-D-Trp-Lys-Val-Cys-m-F-Phe-NH2] (H-[Phe(3-F)][dC][3Pal][dW]KVC[Phe(3-F)]-NH2; disulfide 2-7) had a pIC50 of 6.96. Same read-out and setting: next, `CC(C)[C@@H]1NC(=O)[C@H](CCCCN)NC(=O)[C@@H](Cc2c[nH]c3ccccc23)NC(=O)[C@H](Cc2ccc(O)cc2)NC(=O)[C@H](NC(=O)[C@@H](N)Cc2ccc3ccccc3c2)CSSC[C@@H](C(=O)N[C@@H](C(N)=O)C(c2ccccc2)c2ccccc2)NC1=O` [Analog No. 48, H2-β-Nal-D-Cys-Tyr-D-Trp-Lys-Val-Cys-D-Dip-NH2] (H-[2Nal][dC]Y[dW]KVC[dDip]-NH2; disulfide 2-7): 7.30. `CC(C)[C@@H]1NC(=O)[C@H](CCCCN)NC(=O)[C@@H](Cc2c[nH]c3ccccc23)NC(=O)[C@H](Cc2cccnc2)NC(=O)[C@H](NC(=O)[C@@H](N)Cc2ccc([N+](=O)[O-])cc2)CSSC[C@@H](C(=O)N[C@@H](Cc2ccc(O)cc2)C(N)=O)NC1=O` [Analog No. 39, H2-Npa-D-Cys-Pal-D-Trp-Lys-Val-Cys-Tyr-NH2] (H-[Phe(4-NO2)][dC][3Pal][dW]KVCY-NH2; disulfide 2-7) gave a pIC50 of 7.47.

Turning to `CC(C)[C@@H]1NC(=O)[C@H](CCCCN)NC(=O)[C@@H](Cc2c[nH]c3ccccc23)NC(=O)[C@H](Cc2cccnc2)NC(=O)[C@H](NC(=O)[C@@H](N)Cc2ccc(I)cc2)CSSC[C@@H](C(=O)N[C@@H](Cc2ccc(I)cc2)C(N)=O)NC1=O` [Analog No. 53, H2-Iph-D-Cys-Pal-D-Trp-Lys-Val-Cys-Iph-NH2] (H-[Phe(4-I)][dC][3Pal][dW]KVC[Phe(4-I)]-NH2; disulfide 2-7), the pIC50 was 8.54. `CC(C)[C@@H]1NC(=O)[C@H](CCCCN)NC(=O)[C@@H](Cc2c[nH]c3ccccc23)NC(=O)[C@H](Cc2cccnc2)NC(=O)[C@H](NC(=O)[C@@H](N)Cc2ccc(F)cc2)CSSC[C@@H](C(=O)N[C@@H](Cc2ccc(F)cc2)C(N)=O)NC1=O` [Analog No. 12, H2-p-F-Phe-D-Cys-Pal-D-Trp-Lys-Val-Cys-p-F-Phe-NH2] (H-[Phe(4-F)][dC][3Pal][dW]KVC[Phe(4-F)]-NH2; disulfide 2-7): the pIC50 was 7.25.

Take `CC(C)[C@@H]1NC(=O)[C@H](CCCCN)NC(=O)[C@@H](Cc2c[nH]c3ccccc23)NC(=O)[C@H](Cc2c[nH]cn2)NC(=O)[C@H](NC(=O)[C@@H](N)Cc2ccc3ccccc3c2)CSSC[C@@H](C(=O)N[C@@H](C(N)=O)C(c2ccccc2)c2ccccc2)NC1=O` [Analog No. 19, H2-β-Nal-D-Cys-His-D-Trp-Lys-Val-Cys-D-Dip-NH2] (H-[2Nal][dC]H[dW]KVC[dDip]-NH2; disulfide 2-7): the negative logarithm of the IC50 (pIC50) was 6.96. `CC(C)[C@@H]1NC(=O)[C@H](CCCCN)NC(=O)[C@@H](Cc2c[nH]c3ccccc23)NC(=O)[C@H](Cc2cccnc2)NC(=O)[C@H](NC(=O)[C@@H](N)Cc2ccc(C#N)cc2)CSSC[C@@H](C(=O)N[C@@H](Cc2ccc(C#N)cc2)C(N)=O)NC1=O` [Analog No. 47, H2-p-CN-Phe-D-Cys-Pal-D-Trp-Lys-Val-Cys-p-CN-Phe-NH2] (H-[Phe(4-CN)][dC][3Pal][dW]KVC[Phe(4-CN)]-NH2; disulfide 2-7) had a negative-log IC50 (pIC50) of 7.28. Same read-out and setting: the value for `CC(C)[C@H](NC(=O)[C@H](CCCCN)NC(=O)[C@@H](Cc1c[nH]c2ccccc12)NC(=O)[C@H](Cc1ccc(O)cc1)NC(=O)[C@@H](Cc1ccc(Cl)cc1)NC(=O)[C@@H](N)Cc1ccc2ccccc2c1)C(=O)N[C@@H](Cc1ccccc1)C(=O)N[C@H](C(N)=O)[C@@H](C)O` [Analog No. 1, H2-β-Nal-D-Cpa-Tyr-D-Trp-Lys-Val-Phe-Thr-NH2] (H-[2Nal][dPhe(4-Cl)]Y[dW]KVFT-NH2) was 5.52; that for `CC(C)[C@@H]1NC(=O)[C@H](CCCCN)NC(=O)[C@@H](Cc2c[nH]c3ccccc23)NC(=O)[C@H](Cc2c[nH]cn2)NC(=O)[C@H](NC(=O)[C@@H](N)Cc2ccccc2F)CSSC[C@@H](C(=O)N[C@@H](Cc2ccccc2F)C(N)=O)NC1=O` [Analog No. 41, H2-o-F-Phe-D-Cys-His-D-Trp-Lys-Val-Cys-o-F-Phe-NH2] (H-[Phe(2-F)][dC]H[dW]KVC[Phe(2-F)]-NH2; disulfide 2-7) was 6.68. As for `CC(C)[C@@H]1NC(=O)[C@H](CCCCN)NC(=O)[C@@H](Cc2c[nH]c3ccccc23)NC(=O)[C@H](Cc2cccnc2)NC(=O)[C@H](NC(=O)[C@@H](N)Cc2ccccc2)CSSC[C@@H](C(=O)N[C@@H](Cc2ccc3ccccc3c2)C(N)=O)NC1=O` [Analog No. 4, H2-Phe-D-Cys-Pal-D-Trp-Lys-Val-Cys-β-Nal-NH2] (H-F[dC][3Pal][dW]KVC[2Nal]-NH2; disulfide 2-7), the pIC50 is 7.52. For the compound `CC(C)[C@@H]1NC(=O)[C@H](CCCCN)NC(=O)[C@@H](Cc2c[nH]c3ccccc23)NC(=O)[C@H](Cc2cccnc2)NC(=O)[C@H](NC(=O)[C@@H](N)Cc2ccc(Cl)cc2)CSSC[C@@H](C(=O)N[C@@H](Cc2ccc3ccccc3c2)C(N)=O)NC1=O` [Analog No. 55, H2-p-Cl-Phe-D-Cys-Pal-D-Trp-Lys-Val-Cys-β-Nal-NH2] (H-[Phe(4-Cl)][dC][3Pal][dW]KVC[2Nal]-NH2; disulfide 2-7), the negative-log IC50 (pIC50) is 8.59. As to `CC(C)(C)[C@@H]1NC(=O)[C@H](CCCCN)NC(=O)[C@@H](Cc2c[nH]c3ccccc23)NC(=O)[C@H](Cc2cccnc2)NC(=O)[C@H](NC(=O)[C@@H](N)Cc2ccc(Cl)cc2)CSSC[C@@H](C(=O)N[C@@H](Cc2ccc3ccccc3c2)C(N)=O)NC1=O` [Analog No. 56, H2-p-Cl-Phe-D-Cys-Pal-D-Trp-Lys-Tle-Cys-β-Nal-NH2] (H-[Phe(4-Cl)][dC][3Pal][dW]K[Tle]C[2Nal]-NH2; disulfide 2-7), the negative logarithm of the IC50 (pIC50) is 8.74. Same read-out and setting: the value for `CC(C)[C@@H]1NC(=O)[C@H](CCCCN)NC(=O)[C@@H](Cc2c[nH]c3ccccc23)NC(=O)[C@H](Cc2c[nH]cn2)NC(=O)[C@H](NC(=O)[C@@H](N)Cc2cccc(F)c2)CSSC[C@@H](C(=O)N[C@@H](Cc2cccc(F)c2)C(N)=O)NC1=O` [Analog No. 40, H2-m-F-Phe-D-Cys-His-D-Trp-Lys-Val-Cys-m-F-Phe-NH2] (H-[Phe(3-F)][dC]H[dW]KVC[Phe(3-F)]-NH2; disulfide 2-7) was 6.96.

The experiment is the same for the next values; noted with them: cultured rat pituitary cells; 1 nM SRIF and 1 nM GRF(1-29)NH2; 3 hrs at 37° C.; growth hormone by radioimmunoassay; read-out: IC50 of antagonist versus 1 nM SRIF (growth hormone release).
For `CC(C)[C@@H]1NC(=O)[C@H](CCCCN)NC(=O)[C@@H](Cc2c[nH]c3ccccc23)NC(=O)[C@H](Cc2ccc(O)cc2)NC(=O)[C@H](NC(=O)[C@@H](N)Cc2c[nH]c3ccccc23)CSSC[C@@H](C(=O)N[C@H](Cc2ccc3ccccc3c2)C(N)=O)NC1=O` [Analog No. 24, H2-Trp-D-Cys-Tyr-D-Trp-Lys-Val-Cys-D-β-Nal-NH2] (H-W[dC]Y[dW]KVC[d2Nal]-NH2; disulfide 2-7), the pIC50 was 7.17.
